Experimental findings from patent US7893077B2, “Bisaryl-sulfonamides” (Amgen Inc., priority 2004, dated 2011) are described below.

The target of the test is T1, PPARγ (Homo sapiens, UniProt P37231).
T1 construct: made in house
T1 sequence (P37231 1-505): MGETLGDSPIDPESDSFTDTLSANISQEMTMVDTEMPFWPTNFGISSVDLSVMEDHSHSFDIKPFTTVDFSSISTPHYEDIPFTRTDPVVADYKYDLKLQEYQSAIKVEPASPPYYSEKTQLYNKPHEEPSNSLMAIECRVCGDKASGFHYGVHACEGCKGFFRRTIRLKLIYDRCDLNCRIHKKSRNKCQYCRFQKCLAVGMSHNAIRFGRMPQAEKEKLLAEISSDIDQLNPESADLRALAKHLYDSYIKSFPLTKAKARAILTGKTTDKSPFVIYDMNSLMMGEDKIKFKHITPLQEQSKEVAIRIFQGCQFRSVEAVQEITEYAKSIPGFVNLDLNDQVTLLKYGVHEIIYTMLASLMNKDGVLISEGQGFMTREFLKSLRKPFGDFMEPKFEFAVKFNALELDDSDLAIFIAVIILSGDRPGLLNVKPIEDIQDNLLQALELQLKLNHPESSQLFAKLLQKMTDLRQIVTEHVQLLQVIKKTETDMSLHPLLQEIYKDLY
Put plainly: PPARγ ligand binding assay utilizing [3H]-BRL 49653 as the radioligand (filtration). Particulars: concentration required to reduce by 50% the specific binding of [3H]-BRL 49653. An excerpt: The compounds of the present invention can be evaluated for modulation of the PPARγ receptor using assays such as those described in Jiang, et al., Nature 391:82-86 (1998), Ricote, et al., Nature 391:79-82 (1998) and Lehmann, et al., J. Biol. Chem. 270(12): 12953-12956 (1995). Alternatively, the compounds can be evaluated for their ability to displace radiolabeled BRL 49653 from a PPARγ-GST fusion protein as follows:
PPARγ-GST fusion protein (prepared according to standard procedures), [^3H]-BRL 49653 having 50 Ci/mmol specific activity, Polyfiltronics Unifilter 350 filtration plate and glutathione-Sepharose® beads (from Pharmacia: washed twice with 10× binding buffer in which BSA and DTI can be left out).
Binding buffer (10 mM Tris-HCl, pH 8.0, 50 mM KCl, 10 mM DTT, 0.02% BSA and 0.0 1% NP-40) is added in 80-μL amounts to the wells of the filtration plate. The test compound is then added in 10 μL of DMSO. The PPARγ-GST fusion protein and radiolabeled BRL compound are premixed in binding buffer containing 10 mM DTT and added in 10-μL amounts to the wells of the plate to provide final concentrations of 1 µg/well of PPARγ-GST fusion protein and 10 nM [^3H]-BRL 49653 compound. The plate is incubated for 15 min. Glutathione-agarose bead is added in 50 μL of binding buffer, and the plate is vigorously shaken for one hour. The plate is washed four times with 200 μL/well of binding buffer (without BSA and DTT). The bottom of the plate is sealed and 200 μL/well of scintillation cocktail is added. The top of the plate is then sealed and the radioactivity is determined.
IC50 values are defined as the concentration of test compounds required to reduce by 50% the specific binding of [^3H]-BRL 49653 and are represented by (+)<30 μM; (++)<10 μM; (+++)<1 μM.

The IC50 is the concentration that inhibits the measured activity by half.

On to `CCCNc1nc(NS(=O)(=O)c2ccc(Cl)cc2Cl)ncc1Sc1ccc(S(=O)(=O)N2CCCCC2)cc1` [Compound 12, 2,4-Dichloro-N-{5-[4-(piperidine-1-sulfonyl)-phenylsulfanyl]-4-propylamino-pyrimidin-2-yl}-benzenesulfonamide], for which the IC50 is under 1000 nM.
The figure for `CCNc1nc(NS(=O)(=O)c2ccc(Cl)cc2Cl)ncc1Sc1ccc(S(=O)(=O)N2CCCCC2)cc1` [Compound 13, 2,4-Dichloro-N-{4-ethylamino-5-[4-(piperidine-1-sulfonyl) -phenylsulfanyl]-pyrimidin-2-yl}-benzenesulfonamide] is under 1000 nM; for `CCCCNc1nc(NS(=O)(=O)c2ccc(Cl)cc2Cl)ncc1Sc1ccc(S(=O)(=O)N2CCCCC2)cc1` [Compound 14, N-{4-Butylamino-5-[4-(piperidine-1-sulfonyl)-phenylsulfanyl]-pyrimidin-2-yl}-2,4-dichloro-benzenesulfonamide] it is under 1000 nM; for `CCCN(C)c1nc(NS(=O)(=O)c2ccc(Cl)cc2Cl)ncc1Sc1ccc(S(=O)(=O)N2CCCCC2)cc1` [Compound 15, 2,4-Dichloro-N-{4-(methyl-propyl-amino)-5-[4-(piperidine-1-sulfonyl)-phenylsulfanyl]-pyrimidin-2-yl}-benzenesulfonamide] it is under 1000 nM.
The figure for `COCCNc1nc(NS(=O)(=O)c2ccc(Cl)cc2Cl)ncc1Sc1ccc(S(=O)(=O)N2CCCCC2)cc1` [Compound 16, 2,4-Dichloro-N-{4-(2-methoxy-ethylamino)-5-[4-(piperidine-1-sulfonyl)-phenylsulfanyl]-pyrimidin-2-yl}-benzenesulfonamide] is under 1000 nM; for `CC(C)Nc1nc(NS(=O)(=O)c2ccc(Cl)cc2Cl)ncc1Sc1ccc(S(=O)(=O)N2CCCCC2)cc1` [Compound 17, 2,4-Dichloro-N-{4-isopropylamino-5-[4-(piperidine-1-sulfonyl)-phenylsulfanyl]-pyrimidin-2-yl}-benzenesulfonamide] it is under 10000 nM.
For `CCC(CC)Nc1nc(NS(=O)(=O)c2ccc(Cl)cc2Cl)ncc1Sc1ccc(S(=O)(=O)N2CCCCC2)cc1` [Compound 18, 2,4-Dichloro-N-{4-(1-ethyl-propylamino)-5-[4-(piperidine-1-sulfonyl)-phenylsulfanyl]-pyrimidin-2-yl}-benzenesulfonamide] the value was under 30000 nM.
With `O=S(=O)(Nc1ncc(Sc2ccc(S(=O)(=O)N3CCCCC3)cc2)c(NCC2CC2)n1)c1ccc(Cl)cc1Cl` [Compound 19, 2,4-Dichloro-N-{4-(cyclopropylmethyl-amino)-5-[4-(piperidine-1-sulfonyl)-phenylsulfanyl]-pyrimidin-2-yl}-benzenesulfonamide], the IC50 is under 1000 nM.
For `CC(C)CNc1nc(NS(=O)(=O)c2ccc(Cl)cc2Cl)ncc1Sc1ccc(S(=O)(=O)N2CCCCC2)cc1` [Compound 20, 2,4-Dichloro-N-{4-isobutylamino-5-[4-(piperidine-1-sulfonyl)-phenylsulfanyl]-pyrimidin-2-yl}-benzenesulfonamide] the value was under 1000 nM; for `CC(C)CCNc1nc(NS(=O)(=O)c2ccc(Cl)cc2Cl)ncc1Sc1ccc(S(=O)(=O)N2CCCCC2)cc1` [Compound 21, 2,4-Dichloro-N-{4-(3-methyl-butylamino)-5-[4-(piperidine-1-sulfonyl)-phenylsulfanyl]-pyrimidin-2-yl}-benzenesulfonamide], under 10000 nM; for `CCCNc1nc(NS(=O)(=O)c2ccc(Cl)cc2)ncc1Sc1ccc(S(=O)(=O)N2CCCCC2)cc1` [Compound 22, 4-Chloro-N-{5-[4-(piperidine-1-sulfonyl)-phenylsulfanyl]-4-propylamino-pyrimidin-2-yl}-benzenesulfonamide], under 1000 nM.
Regarding `CCCNc1nc(NS(=O)(=O)c2ccc(OC)cc2)ncc1Sc1ccc(S(=O)(=O)N2CCCCC2)cc1` [Compound 23, 4-Methoxy-N-{5-[4-(piperidine-1-sulfonyl)-phenylsulfanyl]-4-propylamino-pyrimidin-2-yl}-benzenesulfonamide], the IC50 is under 10000 nM.
The figure for `CCCNc1nc(NS(=O)(=O)c2ccc(Cl)cc2)ncc1Oc1ccc(S(=O)(=O)N2CCOCC2)cc1` [Compound 24, 4-Chloro-N-{5-[4-(morpholine-4-sulfonyl)-phenoxy]-4-propylamino-pyrimidin-2-yl}-benzenesulfonamide] is under 10000 nM; for `CNc1nc(NS(=O)(=O)c2ccc(Cl)cc2Cl)ncc1Sc1ccc2ccccc2c1` [Compound 25, 2,4-Dichloro-N-[4-methylamino-5-(naphthalen-2-ylsulfanyl) -pyrimidin-2-yl]-benzenesulfonamide] it is under 30000 nM; for `CN(C)c1nc(NS(=O)(=O)c2ccc(Cl)cc2Cl)ncc1Sc1ccc2ccccc2c1` [Compound 26, 2,4-Dichloro-N-[4-dimethylamino-5-(naphthalen-2-ylsulfanyl) -pyrimidin-2-yl]-benzenesulfonamide] it is under 30000 nM.
For `CCCNc1nc(NS(=O)(=O)c2ccc(Cl)cc2Cl)ncc1Oc1ccc(Cl)c(Cl)c1` [Compound 27, 2,4-Dichloro-N-[5-(3,4-dichloro-phenoxy)-4-propylamino-pyrimidin-2-yl]-benzenesulfonamide] the value was under 10000 nM.
`CCCOc1nc(NS(=O)(=O)c2ccc(Cl)cc2Cl)ncc1Sc1ccc(S(=O)(=O)N2CCCCC2)cc1` [Compound 28, 2,4-Dichloro-N-{5-[4-(piperidine-1-sulfonyl)-phenylsulfanyl]-4-propoxy-pyrimidin-2-yl}-benzenesulfonamide] returned an IC50 of under 1000 nM.
The figure for `CCCOc1nc(NS(=O)(=O)c2ccc(Cl)cc2)ncc1Oc1ccc(S(=O)(=O)N2CCOCC2)cc1` [Compound 29, 4-Chloro-N-{5-[4-(morpholine-4-sulfonyl)-phenoxy]-4-propoxy-pyrimidin-2-yl}-benzenesulfonamide] is under 10000 nM; for `COc1nc(NS(=O)(=O)c2ccc(Cl)cc2Cl)ncc1Sc1ccc2ccccc2c1` [Compound 30, 2,4-Dichloro-N-[4-methoxy-5-(naphthalen-2-ylsulfanyl)-pyrimidin-2-yl]-benzenesulfonamide] it is under 10000 nM.
For `CCCOc1nc(NS(=O)(=O)c2ccc(Cl)cc2Cl)ncc1Oc1ccc(Cl)c(Cl)c1` [Compound 31, 2,4-Dichloro-N-[5-(3,4-dichloro-phenoxy)-4-propoxy-pyrimidin-2-yl]-benzenesulfonamide] the value was under 10000 nM; for `CCCSc1nc(NS(=O)(=O)c2ccc(Cl)cc2Cl)ncc1Sc1ccc(S(=O)(=O)N2CCCCC2)cc1` [Compound 32, 2,4-Dichloro-N-{5-[4-(piperidine-1-sulfonyl)-phenylsulfanyl]-4-propylsulfanyl-pyrimidin-2-yl}-benzenesulfonamide], under 1000 nM.
The figure for `CCCCc1nc(NS(=O)(=O)c2ccc(Cl)cc2Cl)ncc1Sc1ccc(S(=O)(=O)N2CCCCC2)cc1` [Compound 43, N-{4-Butyl-5-[4-(piperidine-1-sulfonyl)-phenylsulfanyl]-pyrimidin-2-yl}-2,4-dichloro-benzenesulfonamide] is under 1000 nM; for `CCCCc1nc(NS(=O)(=O)c2ccc(Cl)cc2)ncc1Sc1ccc(S(=O)(=O)N2CCCCC2)cc1` [Compound 44, N-{4-Butyl-5-[4-(piperidine-1-sulfonyl)-phenylsulfanyl]-pyrimidin-2-yl}-4-chloro-benzenesulfonamide] it is under 1000 nM; for `CCCCc1nc(NS(=O)(=O)c2ccc(OC)cc2)ncc1Sc1ccc(S(=O)(=O)N2CCCCC2)cc1` [Compound 45, N-{4-Butyl-5-[4-(piperidine-1-sulfonyl)-phenylsulfanyl]-pyrimidin-2-yl}-4-methoxy-benzenesulfonamide] it is under 1000 nM.
The compound `CCCCc1nc(NS(=O)(=O)c2ccc(C(F)(F)F)cc2Cl)ncc1Sc1ccc(S(=O)(=O)N2CCCCC2)cc1` [Compound 46, N-{4-Butyl-5-[4-(piperidine-1-sulfonyl)-phenylsulfanyl]-pyrimidin-2-yl}-2-chloro-4-trifluoromethyl-benzenesulfonamide] returned an IC50 of under 1000 nM.
